Measured values: PMC6414029, “Utilisation of the Prestwick Chemical Library to identify drugs that inhibit the growth of mycobacteria” (PLoS ONE, 2019)
≈ marks a conversion by molar mass, not a printed value. Where a name gives a salt, the structure may show the parent alone. Read-outs that look alike come from different tables or passages of the source.

Columns and labels:
BCG [1] = assay: microbe, parasite or virus in culture; type: cell-based, Mycobacterium bovis BCG; conditions: for MIC: Mycobacterium tuberculosis variant bovis BCG, BCG, read-out: Liquid MIC
BCG [2] = assay: microbe, parasite or virus in culture; type: cell-based, Mycobacterium bovis BCG; conditions: for MIC: Mycobacterium tuberculosis variant bovis BCG
HepG2 cells = assay: HepG2 cytotoxicity assay (CellTitre-Glo); type: cell-based
Description: Actively growing HepG2 cells were removed from a T-175 tissue culture flask with 5 mL of Eagle’s MEM containing 10% FBS/1%NEAA/1% Penicillin and Streptomycin) and mixed with gentle pipetting. […] The cell suspension was added to 250 mL of the same medium at a final density of […]. […] Plates were allowed to incubate at 37°C at a relative humidity of 80% and 5% CO2 for 48 hours. After incubation, the plates were allowed to equilibrate at room temperature for 30 mins before 25 μL of CellTitre-Glo (Promega) reagent was added to each well using a multichannel pipette. Plates were left at room temperature for 30 mins before relative luminescence was read using a BMG Labtech POLARstar Omega plate reader.

M. tuberculosis H37Rv = assay: Alamar Blue (resazurin) MIC assay; type: cell-based, Mycobacterium tuberculosis; conditions: liquid growth media
Description: To investigate the effects of repurposed compounds on growth of M. tuberculosis H37Rv using an Alamar Blue based MIC assay using the resazurin reagent. This assay was performed in 7H9 medium containing Middlebrook broth and 0.5% glycerol and supplemented with oleic acid, albumin, dextrose, and catalase. Clear- 96-well plates were inoculated with 100 μL of drug diluted with 90 μl of 7H9 medium and 10 μL DMSO. Serial 3-fold dilutions of each drug in 100 μL of 7H9 medium were prepared at various ranges. Growth controls containing no antibiotic and sterility controls without inoculation were also included. 200 μL of sterile deionized water was added to the outer perimeter wells to prevent evaporation during plate incubation. Plates were incubated plate at 37°C for 3–4 days. After incubation, the plates were removed and 10 μL of resazurin (0.02% w/v) was added to each well that contained bacteria. Assay plates were reincubated at 37°C for 24–48 hours and visually assessed for colour development. OD 570 nm readings were taken to provide further quantitation provide an interpretation of the dose response of the bacterium to repurposed compounds.

M. smegmatis [3] = assay: microbe, parasite or virus in culture; type: cell-based, Mycobacterium smegmatis; conditions: liquid medium
M. smegmatis [4] = assay: MIC determination on solid agar; type: cell-based, Mycobacterium smegmatis; conditions: M. smegmatis, 7H10 solid agar, absence of colonies, read-out: Solid MIC
Description: Drugs were diluted from a 10mM stock, mixed individually in 2 mLs of molten 7H10 agar and dispensed in square partitioned petri plates. Plates were incubated at 37°C and solid MIC was determined based on absence of colonies.

BCG [5] = type: cell-based, Mycobacterium bovis BCG
M. smegmatis [6] = type: cell-based, Mycobacterium smegmatis; conditions: 20 μM compound, 48 hr read, GFP fluorescence
[7] = read-out: Solid MIC, BCG, 7H10 solid agar, absence of colonies
[8] = read-out: Solid MIC, BCG, solid agar, values given in mM

Structure (SMILES): CN(C)CC/C=C1/c2ccccc2COc2ccc(CC(=O)O)cc21 [Olopatadine]
- Liquid MIC (BCG [1]): 202.30 µM
- MIC (BCG [1]): 202 µM (≈ 68.3 µg/mL)
- MIC (BCG [2]; [7]): ≥ 0.5 mM
- MIC (BCG [2]; [8]): > 0.5 mM

Structure (SMILES): N=C(N)c1ccc(OCCCCCOc2ccc(C(=N)N)cc2)cc1 [Pentamidine]
- MIC (BCG [1]): 3.23 µM (≈ 1.1 µg/mL)
- MIC (BCG [2]; [7]): 0.05 mM (≈ 17 µg/mL)
- MIC (BCG [2]; [8]): ~0.05 mM (≈ 17 µg/mL)
- IC50 (HepG2 cells; Homo sapiens, HepG2, 48 hours): 3.5 µM
- MIC (M. tuberculosis H37Rv; Mycobacterium tuberculosis): 10.5 µM (≈ 3.58 µg/mL)

Structure (SMILES): CC(C)(N)Cc1ccccc1 [Phenteramine, Phentermine]
- MIC (BCG [1]): 375 µM (≈ 56 µg/mL)

Structure (SMILES): O=C(c1ccc(OCCN2CCCCC2)cc1)c1c(-c2ccc(O)cc2)sc2cc(O)ccc12 [Raloxifene]
- IC50 (HepG2 cells; 48 hours): 20 µM
- MIC (M. smegmatis [3]): 25.7 µM (≈ 12.2 µg/mL)
- MIC (M. smegmatis [4]): 312.5 µM (≈ 148 µg/mL)
- MIC (M. tuberculosis H37Rv): 22.10 µM (≈ 10.5 µg/mL)

Structure (SMILES): CN(CCOc1ccc(CC2SC(=O)NC2=O)cc1)c1ccccn1 (stereo not shown) [Rosiglitazone]
- MIC (BCG [1]): 43.1 µM (≈ 15.4 µg/mL)
- MIC (BCG [2]; [7]): ≥ 1.5 mM
- MIC (BCG [2]; [8]): ~1.5 mM (≈ 536 µg/mL)

Structure (SMILES): CN[C@H]1CC[C@@H](c2ccc(Cl)c(Cl)c2)c2ccccc21 [Sertraline]
- MIC (M. smegmatis [3]): 526.7 µM (≈ 161 µg/mL)
- MIC (M. smegmatis [4]; Mycolicibacterium smegmatis): 90 µM (≈ 27.6 µg/mL)

Structure (SMILES): CCCCCCCCNC(C)C(O)c1ccc(SC(C)C)cc1 (stereo not shown) [Sulocitidil]
- MIC (M. smegmatis [3]): 87.22 µM (≈ 29.4 µg/mL)
- MIC (M. smegmatis [4]): 625 µM (≈ 211 µg/mL)

Structure (SMILES): CC/C(=C(\c1ccccc1)c1ccc(OCCN(C)C)cc1)c1ccccc1 [Tamoxifen citrate]
- MIC (M. smegmatis [3]): 26.48 µM
- MIC (M. tuberculosis H37Rv; Mycobacterium tuberculosis): ≥ 100 µM

Structure (SMILES): CCCCCCCCCCCCCCCC[N+](C)(C)CCN(Cc1ccc(OC)cc1)c1ncccn1 [Thonzonium, Thonzonium bromide]
- MIC (BCG [1]): 0.16 µM
- Solid MIC relative to liquid MIC (BCG [2]): 5 fold
- MIC (BCG [2]; [7]): ~0.005 mM

Structure (SMILES): CN(C)CCOc1ccc(/C(=C(/CCCl)c2ccccc2)c2ccccc2)cc1 [Toremifene]
- MIC (M. smegmatis [3]): 23.76 µM (≈ 9.65 µg/mL)
- MIC (M. smegmatis [4]; Mycolicibacterium smegmatis): 62.5 µM (≈ 25.4 µg/mL)

Structure (SMILES): CN(C)CCN(Cc1ccccc1)c1ccccn1 [Tripelennamine]
- MIC (BCG [1]): 41.9 µM (≈ 10.7 µg/mL)
- Solid MIC relative to liquid MIC (BCG [2]): 2 fold
- MIC (BCG [2]; [7]): 0.1 mM (≈ 25.5 µg/mL)
- MIC (BCG [2]; [8]): 0.1 mM (≈ 25.5 µg/mL)
- IC50 (HepG2 cells; Homo sapiens, HepG2, 48 hours): > 250 µM
- MIC (M. tuberculosis H37Rv; Mycobacterium tuberculosis): 49.3 µM (≈ 12.6 µg/mL)

Structure (SMILES): CC[C@@H](CO)NCCN[C@@H](CC)CO [ethambutol]
- % survival (BCG [5]): < 25%
- % survival (M. smegmatis [6]): < 25%

Structure (SMILES): NNC(=O)c1ccncc1 [isoniazid]
- % survival (BCG [5]): < 25%
- % survival (M. smegmatis [6]): < 25%

Structure (SMILES): NC(=O)c1cnccn1 [pyrazinamide]
- % survival (BCG [5]): < 25%

Structure (SMILES): CO[C@H]1/C=C/O[C@@]2(C)Oc3c(C)c(O)c4c(O)c(c(/C=N/N5CCN(C)CC5)c(O)c4c3C2=O)NC(=O)/C(C)=C\C=C\[C@H](C)[C@H](O)[C@@H](C)[C@@H](O)[C@@H](C)[C@H](OC(C)=O)[C@@H]1C [rifampicin]
- % survival (BCG [5]): < 25%
- % survival (M. smegmatis [6]): < 25%

Structure (SMILES): [H]/N=C(/N)N[C@H]1[C@H](O)[C@@H](O)[C@H](O[C@@H]2O[C@@H](C)[C@](O)(C=O)[C@H]2O[C@@H]2O[C@@H](CO)[C@H](O)[C@@H](O)[C@@H]2NC)[C@@H](N/C(N)=N\[H])[C@@H]1O [streptomycin]
- % survival (BCG [5]): < 25%
- % survival (M. smegmatis [6]): < 25%
